The test system of this series is CCRIS mutagenicity, Ames/micronucleus/aberration tests. Nature of the series: CCRIS mutagenicity studies.
[1] abbreviates: Test System: AMES SALMONELLA TYPHIMURIUM, Strain/Indicator: TA98, Metabolic Activation: NONE, Method: PREINCUBATION
Setting [2] is: Test System: AMES SALMONELLA TYPHIMURIUM, Strain/Indicator: TA100, Metabolic Activation: NONE, Method: PREINCUBATION
Setting [3] is: Test System: AMES SALMONELLA TYPHIMURIUM, Strain/Indicator: TA98, Metabolic Activation: NONE, Method: STANDARD PLATE.
Where [4] appears, read: Test System: AMES SALMONELLA TYPHIMURIUM, Strain/Indicator: TA98, Metabolic Activation: RAT, LIVER, S-9, AROCLOR 1254, Method: STANDARD PLATE.
Where [5] appears, read: Test System: AMES SALMONELLA TYPHIMURIUM, Strain/Indicator: TA100, Metabolic Activation: NONE, Method: STANDARD PLATE.
Where [6] appears, read: Test System: AMES SALMONELLA TYPHIMURIUM, Strain/Indicator: TA100, Metabolic Activation: RAT, LIVER, S-9, AROCLOR 1254, Method: STANDARD PLATE.

Each structure is given as a SMILES string. Active and inactive are the calls of the source. How the calls were made is not given here.

Regarding `N#CCCCCC#N`, the mutagenic call (Test System: AMES SALMONELLA TYPHIMURIUM, Strain/Indicator: TA97, Metabolic Activation: HAMSTER, LIVER, S-9, AROCLOR 1254 (10 OR 30%), Method: PREINCUBATION) was “inactive; negative”; the mutagenic call (Test System: AMES SALMONELLA TYPHIMURIUM, Strain/Indicator: TA97, Metabolic Activation: NONE, Method: PREINCUBATION) is “inactive; negative”; the mutagenic call (Test System: AMES SALMONELLA TYPHIMURIUM, Strain/Indicator: TA97, Metabolic Activation: RAT, LIVER, S-9, AROCLOR 1254 (10 OR 30%), Method: PREINCUBATION) is “inactive; negative”; the mutagenic call (Test System: AMES SALMONELLA TYPHIMURIUM, Strain/Indicator: TA98, Metabolic Activation: HAMSTER, LIVER, S-9, AROCLOR 1254 (10 OR 30%), Method: PREINCUBATION) is “inactive; negative”; the mutagenic call under setting [1] is “inactive; negative”; the mutagenic call (Test System: AMES SALMONELLA TYPHIMURIUM, Strain/Indicator: TA98, Metabolic Activation: RAT, LIVER, S-9, AROCLOR 1254 (10 OR 30%), Method: PREINCUBATION) is “inactive; negative”. The mutagenic call reads like this: (Test System: AMES SALMONELLA TYPHIMURIUM, Strain/Indicator: TA100, Metabolic Activation: HAMSTER, LIVER, S-9, AROCLOR 1254 (10 OR 30%), Method: PREINCUBATION) “inactive; negative”; under setting [2], “inactive; negative”; (Test System: AMES SALMONELLA TYPHIMURIUM, Strain/Indicator: TA100, Metabolic Activation: RAT, LIVER, S-9, AROCLOR 1254 (10 OR 30%), Method: PREINCUBATION) “inactive; negative”; (Test System: AMES SALMONELLA TYPHIMURIUM, Strain/Indicator: TA1535, Metabolic Activation: HAMSTER, LIVER, S-9, AROCLOR 1254 (10 OR 30%), Method: PREINCUBATION) “inactive; negative”; (Test System: AMES SALMONELLA TYPHIMURIUM, Strain/Indicator: TA1535, Metabolic Activation: NONE, Method: PREINCUBATION) “inactive; negative”; (Test System: AMES SALMONELLA TYPHIMURIUM, Strain/Indicator: TA1535, Metabolic Activation: RAT, LIVER, S-9, AROCLOR 1254 (10 OR 30%), Method: PREINCUBATION) “inactive; negative”.

With `COc1c2ccoc2nc2c(O)cccc12`, the mutagenic call by setting is: under setting [3], “inactive; negative”; (Test System: AMES SALMONELLA TYPHIMURIUM, Strain/Indicator: TA98, Metabolic Activation: RAT LIVER S-9, PHENOBARTITAL, Method: STANDARD PLATE) “active; positive”.

As for `Oc1c(O)c(Cl)c(Cl)c(Cl)c1Cl`, the mutagenic call is “inactive; negative” (Test System: CHINESE HAMSTER V-79, Strain/Indicator: V-79/6-THIOGUANINE (HGPRT), Metabolic Activation: NONE, Method: SUSPENSION/PLATE); “inactive; negative” (Test System: CHINESE HAMSTER V-79, Strain/Indicator: V-79/6-THIOGUANINE, Metabolic Activation: NONE, Method: STANDARD PLATE); “inactive; negative” (Test System: CHINESE HAMSTER V-79, Strain/Indicator: V-79/6-THIOGUANINE, Metabolic Activation: PRIMARY RAT HEPATOCYTES, Method: STANDARD PLATE); “inactive; negative” (Test System: CHINESE HAMSTER V-79, Strain/Indicator: V-79/OUABAIN, Metabolic Activation: NONE, Method: SUSPENSION/PLATE).

`O=C(O)CCCl`: the mutagenic call (Test System: Ames Salmonella typhimurium, Strain/Indicator: TA98, Metabolic Activation: None, Method: Preincubation) is “inactive; negative”; the mutagenic call (Test System: Ames Salmonella typhimurium, Strain/Indicator: TA98, Metabolic Activation: Rat, Liver, S9, Sodium phenobarbital and 5,6-benzoflavone (10%), Method: Preincubation) is “inactive; negative”; the mutagenic call (Test System: Ames Salmonella typhimurium, Strain/Indicator: TA100, Metabolic Activation: None, Method: Preincubation) was “active; positive”; the mutagenic call (Test System: Ames Salmonella typhimurium, Strain/Indicator: TA100, Metabolic Activation: Rat, Liver, S9, Sodium phenobarbital and 5,6-benzoflavone (10%), Method: Preincubation) was “active; positive”; the mutagenic call (Test System: Ames Salmonella typhimurium, Strain/Indicator: TA1535, Metabolic Activation: None, Method: Preincubation) was “active; positive”; the mutagenic call (Test System: Ames Salmonella typhimurium, Strain/Indicator: TA1535, Metabolic Activation: Rat, Liver, S9, Sodium phenobarbital and 5,6-benzoflavone (10%), Method: Preincubation) is “active; positive”. In addition, the mutagenic call reads like this: (Test System: Ames Salmonella typhimurium, Strain/Indicator: TA1537, Metabolic Activation: Rat, Liver, S9, Sodium phenobarbital and 5,6-benzoflavone (10%), Method: Preincubation) “inactive; negative”; (Test System: E. coli, Strain/Indicator: WP2uvrA/pKM101, Metabolic Activation: None, Method: Preincubation) “active; positive”; (Test System: E. coli, Strain/Indicator: WP2uvrA/pKM101, Metabolic Activation: Rat, Liver, S9, Sodium phenobarbital and 5,6-benzoflavone (10%), Method: Preincubation) “active; positive”.

For the compound `C=C(C)C(=O)OCCCCCCOC(=O)C(=C)C`, the mutagenic call was “inactive; negative” under setting [3]; “inactive; negative” under setting [4]; “inactive; negative” (Test System: AMES SALMONELLA TYPHIMURIUM, Strain/Indicator: TA98, Metabolic Activation: RAT, LIVER, S-9, SODIUM PHENOBARBITAL, Method: STANDARD PLATE); “inactive; negative” under setting [5]; “inactive; negative” under setting [6]; “inactive; negative” (Test System: AMES SALMONELLA TYPHIMURIUM, Strain/Indicator: TA100, Metabolic Activation: RAT, LIVER, S-9, SODIUM PHENOBARBITAL, Method: STANDARD PLATE). Further, the mutagenic call (Test System: AMES SALMONELLA TYPHIMURIUM, Strain/Indicator: TA1535, Metabolic Activation: NONE, Method: STANDARD PLATE) was “inactive; negative”; the mutagenic call (Test System: AMES SALMONELLA TYPHIMURIUM, Strain/Indicator: TA1535, Metabolic Activation: RAT, LIVER, S-9, AROCLOR 1254, Method: STANDARD PLATE) is “inactive; negative”; the mutagenic call (Test System: AMES SALMONELLA TYPHIMURIUM, Strain/Indicator: TA1535, Metabolic Activation: RAT, LIVER, S-9, SODIUM PHENOBARBITAL, Method: STANDARD PLATE) is “inactive; negative”; the mutagenic call (Test System: AMES SALMONELLA TYPHIMURIUM, Strain/Indicator: TA1537, Metabolic Activation: NONE, Method: STANDARD PLATE) is “inactive; negative”; the mutagenic call (Test System: AMES SALMONELLA TYPHIMURIUM, Strain/Indicator: TA1537, Metabolic Activation: RAT, LIVER, S-9, AROCLOR 1254, Method: STANDARD PLATE) was “inactive; negative”; the mutagenic call (Test System: AMES SALMONELLA TYPHIMURIUM, Strain/Indicator: TA1537, Metabolic Activation: RAT, LIVER, S-9, SODIUM PHENOBARBITAL, Method: STANDARD PLATE) was “inactive; negative”. The mutagenic call (Test System: AMES SALMONELLA TYPHIMURIUM, Strain/Indicator: TA1538, Metabolic Activation: NONE, Method: STANDARD PLATE) is “inactive; negative”; the mutagenic call (Test System: AMES SALMONELLA TYPHIMURIUM, Strain/Indicator: TA1538, Metabolic Activation: RAT, LIVER, S-9, AROCLOR 1254, Method: STANDARD PLATE) is “inactive; negative”; the mutagenic call (Test System: AMES SALMONELLA TYPHIMURIUM, Strain/Indicator: TA1538, Metabolic Activation: RAT, LIVER, S-9, SODIUM PHENOBARBITAL, Method: STANDARD PLATE) was “inactive; negative”.

Regarding `COc1nncc2cccnc12`, the mutagenic call was “inactive; negative” under setting [1]; “inactive; negative” (Test System: AMES SALMONELLA TYPHIMURIUM, Strain/Indicator: TA98, Metabolic Activation: RAT, LIVER, S-9, PCB, Method: PREINCUBATION); “inactive; negative” under setting [2]; “inactive; negative” (Test System: AMES SALMONELLA TYPHIMURIUM, Strain/Indicator: TA100, Metabolic Activation: RAT, LIVER, S-9, PCB, Method: PREINCUBATION).

For the compound `CC(=O)n1ccnc1`, the mutagenic call is, setting by setting: (Test System: AMES SALMONELLA TYPHIMURIUM, Strain/Indicator: TA97, Metabolic Activation: NONE, Method: STANDARD PLATE) “inactive; negative”; (Test System: AMES SALMONELLA TYPHIMURIUM, Strain/Indicator: TA97, Metabolic Activation: RAT, LIVER, S-9, AROCLOR 1254, Method: STANDARD PLATE) “inactive; negative”; under setting [3], “inactive; negative”; under setting [4], “inactive; negative”; under setting [5], “inactive; negative”; under setting [6], “inactive; negative”. Also, the mutagenic call runs as follows: (Test System: AMES SALMONELLA TYPHIMURIUM, Strain/Indicator: TA102, Metabolic Activation: NONE, Method: STANDARD PLATE) “inactive; negative”; (Test System: AMES SALMONELLA TYPHIMURIUM, Strain/Indicator: TA102, Metabolic Activation: RAT, LIVER, S-9, AROCLOR 1254, Method: STANDARD PLATE) “inactive; negative”.

The values above are taken from PubChem BioAssay AID1259407 (Chemical Carcinogenesis Research Information System (CCRIS), 2018).
